These results are taken from patent US20140024653A1, “COMPOSITIONS AND METHODS FOR TREATING CANCER USING PI3K INHIBITOR AND MEK INHIBITOR” (priority 2011, published 2014).

One data set deals with SW620. The data set is described as follows: SRB cell growth assay, 72 h. Format: cell-based. The conditions noted are these: Homo sapiens, SW-620, non-sensitive, z score >1.5. The procedure: (§1) Cell growth and treatment were performed in 96-well microtitre plates CELLSTAR® (Greiner Bio-One, Germany). Cells harvested from exponential phase cultures by trypsinization were plated in 150 μl of media at optimal seeding densities. The optimal seeding densities for each cell line were determined to ensure exponential growth for the duration of the experiment. All cells growing without anticancer agents were sub-confluent by the end of the treatment as determined by visual inspection.
(§2) 150 μl of cells, after a 24-hour pre-growth period, were treated by mixing with 50 μl of the compound containing media (resulting in a final DMSO concentration of 0.1%). The cells were allowed to grow at 37° C. for 72 hours. In addition, all experiments contained a few plates with cells that were processed for measurement immediately after the 24 hours recovery period. These plates contained information about the cell number that existed before treatment, at time zero, and served to calculate the cytotoxicity.
(§3) After treatment, cells were precipitated by addition of 10% TCA. Prior to fixation, the media was aspirated as described. After an hour of incubation at 4° C., the plates were washed two times with 400 μl of deionized water. Cells were then stained with 100 μl of a 0.08% wt/v SRB. The plates were allowed to sit for at least 30 min. and washed six times with 1% acetic acid to remove unbound stain. The plates were left to dry at room temperature and bound SRB was solubilized with 100 μl of 10 mM Tris base. Measurement of optical density was performed at 560 nm on a Victor 2 plate reader (Perkin Elmer, Germany). The SRB values for A375 and H460 cell lines were near to saturation (2.5 OD units) due to the high protein content of these cells, but not cell confluence. The measurements for these cells were performed at 520 nm instead of 560 nm.
(§4) Using these measurements, cellular responses can be calculated for incomplete inhibition of cell growth (GI), complete inhibition of cell growth (T GI) and net loss of cells (LC) due to compound activity. […] This is the drug concentration causing a 50% reduction compared to the net protein increase in control cells during the drug incubation period. In other words, GI50 is IC50 corrected for time zero. Similar to IC90, calculated GI90 values are also reported for all compounds tested. TGI was calculated from Ti=Tz. […] It was calculated as 100×[(Ti−Tz)/Tz]=−50. However, due to 72 hours treatment, low cell seeding density was required and LC50 could rarely be achieved.

Another data set relates to IMR90. The data set is described as follows: SRB cell growth assay, 72 h. It counts as cell-based. The following applies: Homo sapiens, IMR-90, most sensitive, z-score <−1.5. As for the experimental part:
as §1, §2, §3, §4

In the next data set the test system is IGROV1. The data set can be described thus: SRB cell growth assay, 72 h. Format: cell-based. The conditions noted are these: Homo sapiens, IGROV-1, most sensitive, z-score <−1.5. As for the experimental part: as §1, §2, §3, §4
Another data set concerns A204. The data set can be described thus: SRB cell growth assay, 72 h. It counts as cell-based. The following applies: Homo sapiens, most sensitive, z-score <−1.5. As for the experimental part: as §1, §2, §3, §4
For another data set, the system named is CAKI1. The data set can be described thus: SRB cell growth assay, 72 h. Format: cell-based. The following applies: Homo sapiens, CAKI-1, most sensitive, z-score <−1.5. As for the experimental part: as §1, §2, §3, §4
The conditions of data set [1]: mice; cited from earlier work.
The test system of the next data set is J82. The data set is described as follows: SRB cell growth assay, 72 h. The following applies: single agent, up to 50 μM. It counts as cell-based, human. The procedure: as §1, §2, §3, §4
For a further data set, the system named is SF268. The data set can be described thus: SRB cell growth assay, 72 h. It counts as cell-based, human. The conditions noted are these: single agent, up to 50 μM. The procedure: as §1, §2, §3, §4
The test system of another data set is HT1080. The data set can be described thus: SRB cell growth assay, 72 h. Format: cell-based, human. As for the experimental part:
as §1, §2, §3, §4

A further data set concerns JAR. The data set can be described thus: SRB cell growth assay, 72 h. It counts as cell-based, human. The conditions noted are these: single agent, up to 50 μM. As for the experimental part: as §1, §2, §3, §4
The next data set has as its system NCIH82. The data set is described as follows: SRB cell growth assay, 72 h. Format: cell-based, human. The conditions noted are these: single agent, up to 50 μM. As for the experimental part: as §1, §2, §3, §4
A further data set has as its system PLCPRF5. The data set is described as follows: SRB cell growth assay, 72 h. The conditions noted are these: single agent, up to 50 μM. Format: cell-based, human. The procedure:
as §1, §2, §3, §4

A further data set has as its system JEG3. The data set can be described thus: SRB cell growth assay, 72 h. The following applies: single agent, up to 50 μM. It counts as cell-based, human. The procedure: as §1, §2, §3, §4
For data set [2] the following is noted: mice and rats; cited from earlier work.
The test system of a further data set is TE671. The data set is described as follows: SRB cell growth assay, 72 h. It counts as cell-based. The conditions noted are these: Homo sapiens, TE-671, most sensitive cell lines. The procedure:
as §1, §2, §3, §4

Another data set deals with CLS439. The data set is described as follows: SRB cell growth assay, 72 h. Format: cell-based. The conditions noted are these: Homo sapiens, highest tested concentration 50 μM, read-out: activity (estimated). As for the experimental part:
as §1, §2, §3, §4

Another data set relates to PC3. The data set can be described thus: SRB cell growth assay, 72 h. It counts as cell-based. The conditions noted are these: Homo sapiens, PC-3, highest tested concentration 50 μM, read-out: activity (estimated). As for the experimental part: as §1, §2, §3, §4
In another data set the test system is A375. The data set can be described thus: SRB cell growth assay, 72 h. It counts as cell-based. The conditions noted are these: Homo sapiens, A-375, most sensitive cell lines. The procedure: as §1, §2, §3, §4
For a further data set, the system named is COLO205. The data set is described as follows: SRB cell growth assay, 72 h. Format: cell-based. The conditions noted are these: Homo sapiens, COLO 205, most sensitive cell lines. As for the experimental part: as §1, §2, §3, §4
For a further data set, the system named is SF295. The data set is described as follows: SRB cell growth assay, 72 h. Format: cell-based. The conditions noted are these: Homo sapiens, SF-295, highest tested concentration 50 μM, read-out: activity (estimated). The procedure: as §1, §2, §3, §4
For a further data set, the system named is EFO21. The data set is described as follows: SRB cell growth assay, 72 h. Format: cell-based. The following applies: Homo sapiens, EFO-21, highest tested concentration 50 μM, read-out: activity (estimated). As for the experimental part:
as §1, §2, §3, §4

The next data set relates to SKNAS. The data set is described as follows: SRB cell growth assay, 72 h. It counts as cell-based. The following applies: Homo sapiens, SK-N-AS, most sensitive cell lines. The procedure:
as §1, §2, §3, §4

Another data set has as its system SKOV3. The data set is described as follows: SRB cell growth assay, 72 h. Format: cell-based. The following applies: Homo sapiens, SK-OV-3, highest tested concentration 50 μM, read-out: activity (estimated). As for the experimental part: as §1, §2, §3, §4
A further data set relates to HT29. The data set can be described thus: SRB cell growth assay, 72 h. It counts as cell-based. The following applies: Homo sapiens, HT-29, most sensitive cell lines. As for the experimental part:
as §1, §2, §3, §4

A further data set has as its system NCIH292. The data set is described as follows: SRB cell growth assay, 72 h. It counts as cell-based. The following applies: Homo sapiens, NCI-H292, most sensitive cell lines. As for the experimental part:
as §1, §2, §3, §4

In the next data set the test system is SAOS2. The data set is described as follows: SRB cell growth assay, 72 h. Format: cell-based. The conditions noted are these: Homo sapiens, SAOS-2, highest tested concentration 50 μM, read-out: activity (estimated). The procedure: as §1, §2, §3, §4
A further data set has as its system SKMEL5. The data set is described as follows: SRB cell growth assay, 72 h. It counts as cell-based. The following applies: Homo sapiens, SK-MEL-5, most sensitive cell lines. The procedure:
as §1, §2, §3, §4

A value given as a limit tells only on which side of the number the result lay.

As a reminder, the GI50 is the concentration at which growth is held to half of that of the control. The low end stands for more potent growth inhibition, the high end for less potent growth inhibition. As to `CCn1c(=O)c(-c2ccn[nH]2)cc2c(C)nc(N)nc21` [Compound (2b), 2-amino-8-ethyl-4-methyl-6-(1H-pyrazol-5-yl)pyrido[2,3-d]pyrimidin-7(8H)-one], the 50% growth inhibitory concentration (GI50) with SW620 was above 4000 nM; with IMR90 it was below 500 nM; in the data set with IGROV1 it was below 500 nM; with A204, below 500 nM; in the data set on CAKI1 it was below 500 nM.
For orientation: clearance means the rate of elimination divided by the concentration. As usually defined, the half-life is the time needed for the level to fall by half in the phase considered. On to `O=C(NC[C@H](O)CO)c1ccncc1Nc1ccc(I)cc1F` [Compound (1), N—((S)-2,3-dihydroxypropyl)-3-(2-fluoro-4-iodo-phenylamino)isonicotinamide], for which the “two-week maximum tolerated dose” value in data set [1] is listed as 60 mg/kg BID. In addition, the “activity (cell growth inhibition)” value with J82, with SF268, in the data set with JAR, in the data set with NCIH82, in the data set with PLCPRF5 and in the data set with JEG3 was “minimal activity” in each case. In addition, the sensitivity entry with HT1080 is recorded as “very sensitive”. Further, the clearance in data set [2] was 15 to 43.3 mL/min/kg. Besides, the half-life in data set [2] is 2.2 to 4.7 h. The oral bioavailability in data set [2] is 52-57%. The IC50 in the data set on TE671 was 4.8 to 8 nM; in the data set with CLS439, above 50000 nM; in the data set on PC3 it was above 50000 nM; in the data set on A375 it was 4.8 to 8 nM; in the data set on COLO205, 4.8 to 8 nM; with SF295 it was above 50000 nM. Also, the IC50 in the data set on EFO21 is above 50000 nM; with SKNAS, 4.8 to 8 nM; with SKOV3, above 50000 nM; with HT29, 4.8 to 8 nM; in the data set on NCIH292 it was 4.8 to 8 nM; with SAOS2, above 50000 nM. The compound also gave an IC50 in the data set with SKMEL5 of 4.8 to 8 nM.
